Experimental data: PubChem BioAssay AID276 (DTP/NCI, 2004)
“And” between values parts separate entries of the source, which are not always exact repeats. Equal values may be shown once. Toxic doses and inconclusive results are not listed.

Test system: B6C3F1 mice, Lewis lung carcinoma iv, survival T/C
Assay: NCI In Vivo Anticancer Drug Screen. Data for tumor model Lewis Lung Carcinoma (intravenous) in B6C3F1 mice
Conditions: endpoint: median survival time, schedule: Q01DX009 (ip), higher = longer survival
Summary of the method: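 Transplantable tumor in mice; compound treated vs vehicle controls; read-out survival; value = treated/control (T/C).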

[1] = dose: 3.12 mg/kg/injection, vehicle: saline with Tween-80
[2] = dose: 6.25 mg/kg/injection, vehicle: saline with Tween-80
[3] = dose: 12.5 mg/kg/injection, vehicle: saline with Tween-80
[4] = dose: 25.0 mg/kg/injection, vehicle: saline with Tween-80

CN(N=O)C(N)=O
T/C (dose: 3.0 mg/kg/injection, vehicle: saline): 123 % of control
T/C (dose: 25.0 mg/kg/injection, vehicle: saline): 107 % of control

C#CCNC1=C(C)C(=O)C2=C(C1=O)[C@H](COC(N)=O)[C@]1(OC)[C@@H]3N[C@@H]3CN21
T/C (dose: 6.25 mg/kg/injection, vehicle: distilled water + Tween-80): 102 % of control

O=S1(=O)C=C(c2ccccc2)C(c2ccccc2)=C1
T/C [1]: 101 % of control
T/C [2]: 89 % of control
T/C [3]: 101 % of control
T/C [4]: 110 % of control

CC(=O)NC(C=O)OCC=O (centres undefined)
T/C (dose: 6.25 mg/kg/injection, vehicle: water): 111 % of control
T/C (dose: 12.5 mg/kg/injection, vehicle: water): 104 % of control
T/C (dose: 25.0 mg/kg/injection, vehicle: water): 97 % of control
T/C (dose: 50.0 mg/kg/injection, vehicle: water): 97 % of control
T/C (dose: 100.0 mg/kg/injection, vehicle: water): 91 % of control
T/C (dose: 200.0 mg/kg/injection, vehicle: water): 103 % of control

CCCCCCCCCCCCCCCCCC(=O)Nc1ccn(C2OC(CO)C(O)C2O)c(=O)n1 (centres undefined)
T/C (dose: 12.5 mg/kg/injection, vehicle: suspension in saline): 103 % of control and 109 % of control
T/C (dose: 25.0 mg/kg/injection, vehicle: suspension in saline): 119 % of control
T/C (dose: 50.0 mg/kg/injection, vehicle: suspension in saline): 160 % of control and 164 % of control

CNC(=O)O/N=C(\CN=[N+]=[N-])C(C)(C)C
T/C (dose: 0.13 mg/kg/injection, vehicle: saline): 102 % of control
T/C (dose: 0.25 mg/kg/injection, vehicle: saline): 102 % of control
T/C (dose: 0.5 mg/kg/injection, vehicle: saline): 106 % of control
T/C (dose: 1.0 mg/kg/injection, vehicle: saline): 105 % of control

COc1ccc2[nH]c3c(c2c1)CCNC3CC(C)CCC=C(C)C (centres undefined)
T/C (dose: 6.25 mg/kg/injection, vehicle: Klucel (hydroxypropylcellulose) (HPC)): 98 % of control
T/C (dose: 12.5 mg/kg/injection, vehicle: Klucel (hydroxypropylcellulose) (HPC)): 98 % of control
T/C (dose: 25.0 mg/kg/injection, vehicle: Klucel (hydroxypropylcellulose) (HPC)): 92 % of control
T/C (dose: 50.0 mg/kg/injection, vehicle: Klucel (hydroxypropylcellulose) (HPC)): 103 % of control
T/C (dose: 100.0 mg/kg/injection, vehicle: Klucel (hydroxypropylcellulose) (HPC)): 105 % of control

Cn1c2ccccc2c2ccc3c(c21)C(=O)C=CC3=O
T/C (dose: 1.56 mg/kg/injection, vehicle: saline with Tween-80): 99 % of control
T/C [1]: 106 % of control
T/C [2]: 107 % of control
T/C [3]: 93 % of control and 101 % of control

CCCC(=O)O.CCCC(=O)O.CCCC(=O)O.CCCC(=O)O.[Rh].[Rh]
T/C (dose: 0.03 mg/kg/injection, vehicle: saline + alcohol): 95 % of control
T/C (dose: 0.06 mg/kg/injection, vehicle: saline + alcohol): 97 % of control and 100 % of control
T/C (dose: 0.12 mg/kg/injection, vehicle: saline + alcohol): 93 % of control and 100 % of control
T/C (dose: 0.25 mg/kg/injection, vehicle: saline + alcohol): 91 % of control and 102 % of control
T/C (dose: 0.5 mg/kg/injection, vehicle: saline + alcohol): 92 % of control and 97 % of control
T/C (dose: 1.0 mg/kg/injection, vehicle: saline + alcohol): 91 % of control and 96 % of control

COc1ccc(C[C@H](N)C(=O)NC2C(CO)OC(n3cnc4c(N(C)C)ncnc43)C2O)cc1 (some centres undefined)
T/C (dose: 5.0 mg/kg/injection, vehicle: saline): 99 % of control
T/C (dose: 10.0 mg/kg/injection, vehicle: saline): 104 % of control
T/C (dose: 20.0 mg/kg/injection, vehicle: saline): 114 % of control
T/C (dose: 40.0 mg/kg/injection, vehicle: saline): 109 % of control
T/C (dose: 80.0 mg/kg/injection, vehicle: saline): 114 % of control

CC1/C=C/C=C/CC/C=C/C=C/C=C/C=C/C(OC2OC(C)C(O)C(N)C2O)CC2OC(CC(O)C(O)CCC(O)CC(O)CC(O)CC(=O)OC(C)C(C)C1O)CC(O)C2C(=O)O (centres undefined)
T/C [2]: 103 % of control
T/C [3]: 103 % of control
T/C [4]: 98 % of control
T/C (dose: 50.0 mg/kg/injection, vehicle: saline with Tween-80): 101 % of control
